# Assays:
# Format in all cases: in vivo
# Diaitaria ciliaris (Di) [1] = assay: Test Example 4: crop plant selectivity by upland field soil treatment (cotton), herbicidal effects; details: evaluated 21st day after application
# Protocol: (§1) (Test on Crop Plant Selectivity by Upland Field Soil Treatment)
# In a plastic pot (surface area: 600 cm^2) filled with sand, cotton (Go), Diaitaria ciliaris (Di), green foxtail (Se), pale smartweed (Po), slender amaranth (Am), common lambsquarters (Ch) and China jute (Ab) were sown and covered with soil. […] The plants were then cultured in a green house, and the evaluation of the herbicidal effects and phytotoxicity was conducted on the 21st day after the application in accordance with the standards as identified in Table 47. Symbol—represents “not tested”.
# Diaitaria ciliaris (Di) [2] = assay: Test Example 5: crop plant selectivity by upland field soil treatment (wheat), herbicidal effects; details: 21st day after application
# Protocol: as §1
# In a plastic pot (surface area: 600 cm^2) filled with sand, wheat (Tr), Diaitaria ciliaris (Di), green foxtail (Se), pale smartweed (Po), slender amaranth (Am), common lambsquarters (Ch) and China jute (Ab) were sown and covered with soil. […] The plants were then cultured in a green house, and the evaluation of the herbicidal effects and phytotoxicity was conducted on the 21st day after the application in accordance with the standards as identified in Table 47. Symbol—represents “not tested”.
# Diaitaria ciliaris (Di) [3] = assay: Test Example 6: crop plant selectivity by upland field soil treatment (soybean), herbicidal effects; details: 21st day after application
# Protocol: as §1
# (§2) In a plastic pot (surface area: 600 cm^2) filled with sand, soybean (Gl), Diaitaria ciliaris (Di), green foxtail (Se), Johnsongrass (So), pale smartweed (Po), slender amaranth (Am), common lambsquarters (Ch) and China jute (Ab) were sown and covered with soil. […] The plants were then cultured in a green house, and the evaluation of the herbicidal effects and phytotoxicity was conducted on the 21st day after the application in accordance with the standards as identified in Table 47. Symbol—represents “not tested”.
# Johnsongrass (So) = assay: as above; details: 21st day after application
# Protocol: as §1, §2
# slender amaranth (Am) [4] = assay: Test Example 10: crop plant selectivity by upland field foliage treatment (soybean), herbicidal effects; details: dose 1.6 g ai/10a, 14th day after treatment
# Procedure, shortened: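 Soybean and weeds were grown in sand in a greenhouse for 2 weeks before foliar treatment. Herbicidal effect on weeds and phytotoxicity on soybean were scored on day 14 after treatment against a graded scale.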
# cotton (Go) = assay: Test Example 8: crop plant selectivity by upland field foliage treatment (cotton), phytotoxicity; details: dose 1.6 g ai/10a, 14th day after treatment
# Protocol: (§3) (Test on Crop Plant Selectivity by Upland Field Foliage Treatment)
# (§4) In a plastic pot (surface area: 600 cm^2) filled with sand, cotton (Go), pale smartweed (Po), slender amaranth (Am), common lambsquarters (Ch) and China jute (Ab) were sown and cultured in a green house for 2 weeks. […] The plants were then cultured in a green house, and the evaluation of the herbicidal effects and phytotoxicity was conducted on the 14th day after the treatment in accordance with the standards as identified in Table 47.
# China jute (Ab) = assay: Test Example 8: crop plant selectivity by upland field foliage treatment (cotton), herbicidal effects; details: dose 1.6 g ai/10a, 14th day after treatment
# Protocol: as §3, §4
# [5] = system: common lambsquarters (Ch); assay: as above; details: dose 1.6 g ai/10a, 14th day after treatment
# Protocol: as §3, §4
# pale smartweed (Po) = assay: as above; details: dose 1.6 g ai/10a, 14th day after treatment
# Protocol: as §3, §4
# slender amaranth (Am) [6] = assay: as above; details: dose 1.6 g ai/10a, 14th day after treatment
# Protocol: as §3, §4
compound,measurement,setting,value
C#CC(C)Oc1cc(-c2cn(C)c(C(F)(F)F)cc2=O)c(F)cc1Cl (racemic) [Compound 6-10],Herbicidal effects Di,Diaitaria ciliaris (Di) [1]; dose 1.6 g ai/10 a,5
same,Herbicidal effects Di,Diaitaria ciliaris (Di) [1]; dose 6.3 g ai/10 a,5
same,Herbicidal effects Di,Diaitaria ciliaris (Di) [2]; dose 1.6 g ai/10a,5
same,Herbicidal effects Di,Diaitaria ciliaris (Di) [3]; dose 1.6 g ai/10a,5
same,Herbicidal effects So,Johnsongrass (So); dose 1.6 g ai/10a,5
COc1cc(-c2ccc(C(F)(F)F)n(C)c2=O)c(F)cc1Cl [1-15],Herbicidal effects Di,Diaitaria ciliaris (Di) [1]; dose 6.3 g ai/10 a,5
Cn1c(C(F)(F)F)ccc(-c2cc(OCCCl)c(Cl)cc2F)c1=O [1-171],Herbicidal effects Am,slender amaranth (Am) [4],5
C=CC(C)Oc1cc(-c2ccc(C(F)(F)F)n(C)c2=O)c(F)cc1Cl (stereo not shown) [Compound 1-182],Phytotoxicity Go,cotton (Go),2
same,Herbicidal effects Ab,China jute (Ab),5
same,Herbicidal effects Ch,[5],5
same,Herbicidal effects Po,pale smartweed (Po),5
same,Herbicidal effects Am,slender amaranth (Am) [6],5
CCON=Cc1cc(-c2ccc(C(F)(F)F)n(C)c2=O)c(F)cc1Cl [Compound 1-187],Phytotoxicity Go,cotton (Go),2
same,Herbicidal effects Ab,China jute (Ab),5
same,Herbicidal effects Ch,[5],5
same,Herbicidal effects Po,pale smartweed (Po),5
same,Herbicidal effects Am,slender amaranth (Am) [6],5
same,Herbicidal effects Am,slender amaranth (Am) [4],5
CSCOc1cc(-c2ccc(C(F)(F)F)n(C)c2=O)c(F)cc1Cl [Compound 1-208],Herbicidal effects Am,slender amaranth (Am) [4],5
C=CCN1C(=O)COc2cc(F)c(-c3ccc(C(F)(F)F)n(C)c3=O)cc21 [Compound 2-7],Herbicidal effects Di,Diaitaria ciliaris (Di) [1]; dose 1.6 g ai/10 a,5
same,Herbicidal effects Di,Diaitaria ciliaris (Di) [1]; dose 6.3 g ai/10 a,5
same,Herbicidal effects Di,Diaitaria ciliaris (Di) [2]; dose 1.6 g ai/10a,5
same,Herbicidal effects Di,Diaitaria ciliaris (Di) [3]; dose 1.6 g ai/10a,5
same,Herbicidal effects Di,Diaitaria ciliaris (Di) [3]; dose 6.3 g ai/10a,5
same,Herbicidal effects So,Johnsongrass (So); dose 1.6 g ai/10a,5
same,Herbicidal effects So,Johnsongrass (So); dose 6.3 g ai/10a,5
CCCc1cc2c(-c3ccc(C(F)(F)F)n(C)c3=O)c(F)cc(Cl)c2o1 [Compound 4-3],Herbicidal effects Am,slender amaranth (Am) [4],5
CCc1cc2c(Cl)cc(F)c(-c3ccc(C(F)(F)F)n(C)c3=O)c2o1 [Compound 5-2],Herbicidal effects Am,slender amaranth (Am) [4],5
"Cn1c(C(F)(F)F)ccc(-c2cc(C#N)c(Cl)cc2F)c1=O [Compound No. 1-119, 3-(4-chloro-5-cyano-2-fluorophenyl)-1-methyl-6-trifluoromethyl-2(1H)-pyridone]",Herbicidal effects Am,slender amaranth (Am) [4],5
"CCCC(=O)c1cc(-c2ccc(C(F)(F)F)n(C)c2=O)c(F)cc1Cl [Compound No. 1-194, 3-[4-chloro-2-fluoro-5-(1-oxobutyl)phenyl]-1-methyl-6-trifluoromethyl-2(1H)-pyridone]",Phytotoxicity Go,cotton (Go),2
same,Herbicidal effects Ab,China jute (Ab),5
same,Herbicidal effects Ch,[5],5
same,Herbicidal effects Po,pale smartweed (Po),5
same,Herbicidal effects Am,slender amaranth (Am) [6],5
"C#CCN1C(=O)COc2cc(F)c(-c3ccc(C(F)(F)F)n(C)c3=O)cc21 [Compound No. 2-1, 3-[7-fluoro-2,3-dihydro-4-(2-propynyl)-1,4-benzoxazin-3-on-6-yl]-1-methyl-6-trifluoromethyl-2(1H)-pyridone]",Herbicidal effects Di,Diaitaria ciliaris (Di) [1]; dose 1.6 g ai/10 a,5
same,Herbicidal effects Di,Diaitaria ciliaris (Di) [2]; dose 1.6 g ai/10a,5
same,Herbicidal effects Di,Diaitaria ciliaris (Di) [3]; dose 1.6 g ai/10a,5
same,Herbicidal effects Di,Diaitaria ciliaris (Di) [3]; dose 6.3 g ai/10a,5
same,Herbicidal effects So,Johnsongrass (So); dose 1.6 g ai/10a,5
same,Herbicidal effects So,Johnsongrass (So); dose 6.3 g ai/10a,5
"Cn1cc(-c2cc(Oc3ccccc3)c(Cl)cc2F)c(=O)cc1C(F)(F)F [Compound No. 6-19, 5-(4-chloro-2-fluoro-5-phenoxyphenyl)-1-methyl-2-trifluoromethyl-4(1H)-pyridone]",Herbicidal effects Di,Diaitaria ciliaris (Di) [1]; dose 1.6 g ai/10 a,5
same,Herbicidal effects Di,Diaitaria ciliaris (Di) [1]; dose 6.3 g ai/10 a,5
same,Herbicidal effects Di,Diaitaria ciliaris (Di) [2]; dose 1.6 g ai/10a,5
same,Herbicidal effects Di,Diaitaria ciliaris (Di) [2]; dose 6.3 g ai/10a,5
same,Herbicidal effects Di,Diaitaria ciliaris (Di) [3]; dose 1.6 g ai/10a,5
same,Herbicidal effects Di,Diaitaria ciliaris (Di) [3]; dose 6.3 g ai/10a,5
same,Herbicidal effects So,Johnsongrass (So); dose 1.6 g ai/10a,4
same,Herbicidal effects So,Johnsongrass (So); dose 6.3 g ai/10a,5
"Cc1cc2c(-c3cn(C)c(C(F)(F)F)cc3=O)c(F)cc(Cl)c2o1 [Compound No. 9-1, 5-(7-chloro-5-fluoro-2-methylbenzofuran-4-yl)-1-methyl-2-trifluoromethyl-4(1H)-pyridone]",Herbicidal effects Di,Diaitaria ciliaris (Di) [1]; dose 1.6 g ai/10 a,5
same,Herbicidal effects Di,Diaitaria ciliaris (Di) [1]; dose 6.3 g ai/10 a,5
same,Herbicidal effects Di,Diaitaria ciliaris (Di) [2]; dose 1.6 g ai/10a,5
same,Herbicidal effects Di,Diaitaria ciliaris (Di) [2]; dose 6.3 g ai/10a,5

# From patent publication US6472348B1, “Pyridone derivatives and herbicides” (Kumiai Chemical Industry Co., Ltd., priority 1996, dated 2002)
